Columns and labels:
human neutrophils = test: Activity for suppressing chemotaxis of human neutrophils (fMLP); assay type: cell-based; conditions: Neutrophil, 1 h, one hour
Procedure: Test 2: Activity of the Invented Compound for Suppressing Chemotaxis of Human Neutrophils
A neutrophil fraction (60% percoal fraction having neutrophil purity of at least 90%) was obtained from a human peripheral blood by a percoal density gradient centrifugal separation (2300 rpm, 20 minutes).
1300 μl of a culture medium containing 10^-7 M of fMLP (formylmethionyloycyl-phenylalanine), which is a neutrophil chemotaxis factor, was added in advance to each well of a chemotaxis chamber (KURABO). An inter cell having pores 5 μm in diameter and containing 8×10^5 neutrophils and the compound of the present invention adjusted at a desired concentration was disposed in the chemotaxis chamber. After culturing for one hour at 37° C. within a culturing device containing 5% of carbon dioxide gas, the number of cells migrated from the upper side of inter cell membrane into the lower side of the membrane in the chamber was counted by the method described in the following. Specifically, the lower side surface of the inter cell membrane was washed 4 times with PBS. After fixing the washed surface with methanol, the cells were dyed with hematoxylin-eosine solution. Then, the membrane was removed from the inter cell and put on a sliding glass for air-drying, followed by sealing with Canada balsam. Under this condition, five areas selected at random of the membrane were microscopically observed so as to count the number of cells. An average of the number of cells within the five areas was calculated so as to determine the number of migrated cells.
The function of the invented compound for suppressing chemotaxis was determined by the formula given below, in which the value obtained by subtracting the number of migrating cells in the reference experiment in which fMLP was not added from the number of migrating cells in the experiment in which the compound of the present invention was not added was set at 100:
= 100 - (C - D)/(E - D) × 100
A: Chemotaxis in the case of containing the compound of the present invention;
B: Chemotaxis in the case of not containing the compound of the present invention;
C: The number of migrating cells in the case of adding the compound of the present invention, fMLP;
D: The number of migrating cells in the case of not adding fMLP; and
E: The number of migrating cells in the case of adding only fMLP.

[1] = molecular target: T1, human sputum elastase (HSE) (Homo sapiens, UniProt P08246); test: HSE inhibitory activity; assay type: biochemical; conditions: HSE 10 nM, substrate 0.25 mM, pH 7.0
T1 construct: purchased Sigma Inc; host or cells: human sputum (by its name)
T1 sequence (P08246 30-247 limits assumed): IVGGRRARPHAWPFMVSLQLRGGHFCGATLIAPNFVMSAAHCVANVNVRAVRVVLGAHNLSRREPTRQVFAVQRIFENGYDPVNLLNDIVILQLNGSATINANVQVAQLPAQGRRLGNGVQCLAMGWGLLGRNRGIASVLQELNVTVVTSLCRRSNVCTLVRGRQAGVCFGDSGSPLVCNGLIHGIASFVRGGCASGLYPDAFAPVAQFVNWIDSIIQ
Procedure: (§1) Inhibotory activities of the oxadinone derivative of the present invention against human leukocyte elastase (HLE), human sputum elastase (HSE), human cathepsin G (HCG), bovine pancreatic α-chymotrypsin (CYT) and bovine pancreatic trypsin (TRY) were measured as follows:
(2) Measurement of HSE Inhibiting Activity
(§2) a) Enzyme Preparing Method Bought from Sigma Inc.
(§3) Employed was a measuring method similar to that described previously in conjunction with the measurement of the HLE inhibitory activity, except that used was a buffer solution of pH 7.0. The final concentrations of HSE and the synthetic substrate (MeOSuc-Ala-Ala-Pro-Phe-pNA; FUNAKOSHI) in the solution of the enzyme reaction were 10 nM and 0.25 mM, respectively.

[2] = molecular target: T2, bovine pancreatic trypsin (TRY) (Bos taurus, UniProt P00760); test: TRY inhibitory activity; assay type: biochemical; conditions: TRY 25 nM, substrate 1.0 mM, pH 7.5
T2 construct: purchased Sigma Inc; host or cells: bovine pancreas (by its name)
T2 sequence (P00760 24-246): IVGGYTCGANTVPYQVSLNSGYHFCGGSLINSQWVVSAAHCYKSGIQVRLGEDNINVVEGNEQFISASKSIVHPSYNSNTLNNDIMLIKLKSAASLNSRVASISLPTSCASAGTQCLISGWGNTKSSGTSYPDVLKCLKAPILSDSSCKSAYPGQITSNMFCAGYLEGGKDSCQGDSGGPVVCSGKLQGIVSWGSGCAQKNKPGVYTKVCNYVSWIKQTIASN
Procedure: as §1
(5) Measurement of TRY Inhibitory Activity
as §2
as §3, with “inhibiting” for “inhibitory”, “7.5.” for “7.0.”, “TRY” for “HSE”, “(Z-Arg-pNA;” for “(MeOSuc-Ala-Ala-Pro-Phe-pNA;”, “25” for “10”, “1.0” for “0.25”

[3] = molecular target: T3, bovine pancreatic α-chymotrypsin (CYT) (Bos taurus, UniProt P00766); test: CYT inhibitory activity; assay type: biochemical; conditions: CYT 3.4 nM, substrate 0.273 mM, pH 8.0
T3 construct: purchased Sigma Inc; host or cells: bovine pancreas (by its name)
Procedure: as §1
(4) Measurement of CYT Inhibitory Activity
as §2
as §3, with “inhibiting” for “inhibitory”, “8.0.” for “7.0.”, “CYT” for “HSE”, “(Ac-Ala-Ala-Pro-Phe-pNA;” for “(MeOSuc-Ala-Ala-Pro-Phe-pNA;”, “3.4” for “10”, “0.273” for “0.25”

With `Cc1cccc2nc([C@@H](NC(=O)OCC3c4ccccc4-c4ccccc43)C(C)C)oc(=O)c12` [Compound 1, 2-{1(S)-[(9-fluorenylmethoxycarbonyl)amino]-2-methylpropyl}-5-methyl-4H-3,1-benzoxazin-4-one] the inhibition at 50 µM (human neutrophils; concentration 50 (μm), fMLP 10^-7 M) was 89%, the activity at 50 µM (human neutrophils; concentration 50 (μm), without compound = 100, fMLP 10^-7 M) was 11% and the inhibition at 100 µM (human neutrophils; concentration 100 (μm), fMLP 10^-7 M) was 99%. The activity at 100 µM (human neutrophils; concentration 100 (μm), without compound = 100, fMLP 10^-7 M) was 1%, the IC50 [1] was 310 nM and the IC50 [2] was > 6.89 µM. It also gave an IC50 [3] of 4.75 µM.

With `Cc1cccc2nc([C@H](CC(C)C)NC(=O)OCC3c4ccccc4-c4ccccc43)oc(=O)c12` [Compound 2, 2-{1(S)-[(9-fluorenylmethoxycarbonyl)amino]-3-methylbutyl}-5-methyl-4H-3,1-benzoxazin-4-one] the IC50 [1] was 300 nM, the IC50 [2] was > 6.68 µM and the IC50 [3] was 4.46 µM.

Source: patent US5332734A, “Oxazinone derivative” (Japan Tobacco, Incorporated, priority 1991, dated 1994)
